Holding throughout (assay type): in vivo, corn (Zea mays)
Test [1] relates to Nontransgenic corn plants (H99). The experiment in a line: Kanamycin, paromomycin and the combination with and without surfactant. To be noted: 20 μL, 5 plants, seven days. The protocol:
Nontransgenic corn plants (H99) were tested at 24 days old using 5 plants for each treatment. Plants were treated with and without surfactant at two different concentrations of paromomycin, kanamycin, and the combination of paromomycin and kanamycin._On the day of application, an antibiotic solutions consisting of 750 mg/L or 1000 mg/L paromomycin and 0.06% (v/v) SILWET L-77 was prepared, as was a control solution consisting of 750 mg/L or 1000 mg/L of paromomycin in water. […] Antibiotic solution (20 μL) was applied to the whorl of each corn plant, from which any standing water has been removed beforehand.

Test [2] has as its system Nontransgenic 3-week-old corn seedlings. Description: Titration of selective agents with cotton rolls tied to the whorl. The method, then: Nontransgenic 3-week-old corn seedlings were assayed in order to determine the quantity of selective agent necessary in order to obtain a response. […] Cotton rolls were saturated with solutions consisting of 0.03% SILWET L-77 and various concentrations of each of these three antibiotics individually and tied to the whorl of plants to be tested.
The concentrations of genenticin tested were 25 mg/mL, 50 mg/mL, 75 mg/mL, and 100 mg/mL.

For test [3], the system named is corn plants containing NPTII protein. Description: Paromomycin as selective agent to identify corn plants containing NPTII protein (predicted). Particulars: 10 μL of 1000 mg/L paromomycin and 0.06% (v/v) SILWET L-77; five days. An excerpt:
Samples of the plants may be taken and analyzed by ELISA for the presence or absence of NPTII protein prior to the start of the field test. […] Negative controls (i.e., nontransgenic plants) may be divided into two equal groups. […] The treated plants may then be scored for the presence or absence of necrosis five days after application of the antibiotic/[…]-77 solution or control solution. […] The field assay scores may then be correlated with the […] results.

The mark [4] stands for this setting: 750 mg/L (each antibiotic), with 0.06% SILWET L-77.
[5] abbreviates: 750 mg/L (each antibiotic), without SILWET L-77.
The mark [6] stands for this setting: 1000 mg/L (each antibiotic), with 0.06% SILWET L-77.
Setting [7] is: 1000 mg/L (each antibiotic), without SILWET L-77.

Data on two molecules can be found in patent US20030017599A1, “Assay for the detection of selectable marker expression in plants” (priority 1999, published 2003).

SMILES strings stand for the structures.

With `NC[C@H]1O[C@H](O[C@H]2[C@H](O)[C@@H](O[C@H]3O[C@H](CO)[C@@H](O)[C@H](N)[C@H]3O)[C@H](N)C[C@@H]2N)[C@H](O)[C@@H](O)[C@@H]1O` [kanamycin], the “number of plants with mild symptoms” value came out at 0 in test [1] (setting [4]), 1 in test [1] (setting [5]), 2 in test [1] (setting [6]) and 1 in test [1] (setting [7]). Besides, the “number of plants with no symptoms” value in test [1] (setting [4]) is 0; in test [1] (setting [5]), 4; in test [1] (setting [6]) it was 0; in test [1] (setting [7]), 4. Also, the “number of plants with severe necrosis” value in test [1] (setting [4]) amounted to 5; in test [1] (setting [5]), 0; in test [1] (setting [6]) it was 3; in test [1] (setting [7]) it was 0.
`NC[C@@H]1O[C@H](O[C@H]2[C@@H](O)[C@H](O[C@@H]3[C@@H](O)[C@H](N)C[C@H](N)[C@H]3O[C@H]3O[C@H](CO)[C@@H](O)[C@H](O)[C@H]3N)O[C@@H]2CO)[C@H](N)[C@@H](O)[C@@H]1O` [paromomycin]: the “bleaching and necrosis in treated plant leaves” value was “Slight to moderate necrosis and some bleaching” in test [2] (300 mg/L, 500 mg/L and 750 mg/L in 0.03% SILWET L-77, two days); “extreme necrosis and some bleaching” in test [2] (1000 mg/L in 0.03% SILWET L-77, two days). The “number of plants with mild symptoms” value in test [1] (setting [4]), in test [1] (setting [5]), in test [1] (setting [6]) and in test [1] (setting [7]) was 0 in each case. The “number of plants with no symptoms” value in test [1] (setting [4]) was found to be 2; in test [1] (setting [5]) it was 5; in test [1] (setting [6]), 1; in test [1] (setting [7]), 5. The “number of plants with severe necrosis” value turned out to be 3 in test [1] (setting [4]), 0 in test [1] (setting [5]), 4 in test [1] (setting [6]) and 0 in test [1] (setting [7]). In test [3], the “necrosis relative to similarly treated leaves of corn plants that do not contain NPTII protein” value was “reduced or no necrosis”.
